Read-outs that look alike come from different tables or passages of the source.
Columns and labels:
[1] = target: T1, HIV-1 IN (full-length, His-tagged and FLAG-tagged) (Human immunodeficiency virus type 1 group M subtype B, UniProt P12497); assay: HTRF-based IN multimerization assay; type: biochemical; settings: average with SD of three independent experiments, read-out: In vitro IN multimerization EC50
T1 construct: recombinant proteins 6xHis-tagged and FLAG-tagged full-length INs were expressed in E. coli; made in house; host or cells: E. coli
Experimental: For biochemical studies, recombinant proteins 6xHis-tagged and FLAG-tagged full-length INs were expressed in E. coli and purified by column chromatography as previously described ([39]). The HTRF-based assay used to monitor inhibitor-induced aberrant multimerization of IN was performed as previously reported ([15], [19]). Briefly, two separate preparations of His-tagged and FLAG-tagged IN proteins were mixed in presence of increasing concentration of the test compounds and incubated for 2.5 h at room temperature. Anti-His6-XL665 and anti-FLAG-EuCryptate antibodies (Cisbio, Inc) were then added to the reaction and incubated at room temperature for 3 h.

HIV-1 = test system: HIV-1
Experimental: For early stage experiments, viral infectivity of target cells was measured in the presence of increasing concentrations of inhibitors. For late stage, producer cells were transfected in the presence of increasing concentrations of inhibitors, cell-free virions were harvested at 48 h, and the amounts of viral particles produced were measured by p24 concentration essay. Subsequently, the infectivity of these progeny virions was examined without any additional inhibitor being added to the target cells. […] For full viral cycle experiments, the same inhibitor concentrations were added in the producer cells and the target cells ([31]).
The EC50 values were determined in single replication cycle as described previously ([17]). […] The virus supernatants were collected 24 h after drug treatment, and p24 concentrations were determined by HIV-1 Gag p24 ELISA (ZeptoMetrix) following manufacturer’s protocol. The target cells were then infected with HIV-1 virions equivalent to 4 ng of HIV-1 p24, in the absence or presence of indicated concentrations of drugs. To measure EC50 values during the early replication stage, DMSO or the inhibitor was added to the target cells 60 min before infection. The cells were cultured for 48 h, and the cell extracts were prepared using reporter lysis buffer (Promega). Luciferase activity was determined using a commercially available kit (Promega). The cytotoxicity assays were performed on noninfected cells using the commercially available CyQUANT XTT Cell Viability Assay (Invitrogen, Inc) by following the manufacturer protocol. The dose–response curves were fitted with a sigmoidal dose–response equation with Hill slope to determine the compound IC50 and CC50 using Origin software (v9.7).

noninfected cells = assay: CyQUANT XTT Cell Viability cytotoxicity assay; type: cell-based
[2] = target: T2, HIV-1 IN-CTD / full-length IN complex (Human immunodeficiency virus type 1 group M subtype B, UniProt P12497); assay: HTRF-based CTD binding assay (His-tagged CTD-IN with FLAG-tagged full-length IN); type: biochemical; settings: 200 nM of ALLINI
T2 construct: His-tagged CTD-IN and FLAG-tagged full-length IN proteins were mixed; made in house; host or cells: E. coli (stated for the full-length INs)
Source text: To detect in isolation the specific contribution of the IN-CTD to the ALLINI-induced IN multimer complex formation, we have modified our published HTRF-based assay (Fig. 3, A and B). In this new analytical assay, anti-His6-XL665 and anti-FLAG-EuCryptate antibodies allow the detection of fluorescence energy transfer only when FLAG-tagged full-length IN protein tightly interacts with a His-tagged IN-CTD construct. Mixing of the proteins and without compound addition generated a small HTRF signal (Fig. 3C, dimethyl sulfoxide [DMSO]) indicating a weak interaction between the full-length IN and the IN-CTD construct. Strikingly, the addition of ALLINI to the assay promoted a significant increase of HTRF signals proportional to the IN multimerization properties of the compound.
Figure 3 C-terminal domain (CTD) contribution to the ALLINI-induced IN multimer formation.A, schematic of the standard HTRF-based IN multimerization assay. […] C, HTRF signal intensities recorded after the addition of 200 nM of ALLINI to a mixture of Flag tagged full-length IN and His-tagged CTD domain proteins as described in the Methods section. ALLINI, allosteric IN inhibitors; HTRF, homogeneous time resolved fluorescence; IN, integrase.
The CTD-IN protein was generated and purified using a published method ([40]). […] The HTRF binding signal between proteins was recorded using a PerkinElmer EnSpire multimode plate reader.

[3] = test system: HIV-1 virions (viral core density); assay: Sucrose density gradient fractionation of detergent-lysed virions (p24 distribution); type: cell-based; settings: 1 μM during viral production, versus DMSO; fractions 16–22
Source text: We and others have previously observed how ALLINIs interfere with proper virus particle maturation and yield noninfectious particles with eccentrically positioned RNPs. This mislocalization of the RNP to a position located between the low density empty capsid (CA) core and the particle membrane in mature virions has been observed using electron microscopy ([17], [31], [32]). The buoyant sucrose gradient technique that measure the relative density of the viral core of mature virions has also been validated as an effective approach to characterize this mislocalization of the RNP ([17], [33], [34]). […] The CA core density was then detected by measuring the HIV-1 CA (p24) content of each sucrose fraction.
For sucrose density gradient fractionation ([17], [33], [34]), cell-free virions produced from HEK293T cells transfected with pNL4-3 in the absence or presence of indicated concentration of ALLINI were concentrated by ultracentrifugation over a 25% sucrose cushion, pelleted virions were lysed with 0.5% Triton X-100 and were ultracentrifuged through a 20% to 70% (wt/vol) linear sucrose density gradient at 28,500 rpm for 16 h at 4C in SW40 rotor (Beckman). […] The relative distribution of HIV-1 capsid was determined by quantifying the Western blot p24 signal. […]

| SMILES | EC50 [1] [nM] | PSI (phase specificity index) (HIV-1) | IC50 (HIV-1; read-out: Early IC50) [nM] | IC50 (HIV-1; read-out: Full IC50) [nM] | IC50 (HIV-1; read-out: Late IC50) [nM] | CC50 (noninfected cells) [nM] | HTRF signal intensity, CTD / full-length IN complex [2] | Fold improvement of overall antiviral IC50 (HIV-1) | Fold increase of PSI (HIV-1) [fold] | Effect on HIV-1 capsid (p24) distribution in sucrose density gradient fractions [3] |
| --- | --- | --- | --- | --- | --- | --- | --- | --- | --- | --- |
| Cc1nc2ccccc2c(-c2ccc3c(c2)OCCO3)c1C(OC(C)(C)C)C(=O)O (stereo not shown) [NGJ-9002] | 110 ± 10 | 64 | 42000 ± 3000 | 830 ± 50 | 660 ± 30 | > 100000 |  |  |  |  |
| COc1ccccc1-c1ccc2c(-c3ccc4c(c3)OCCO4)c(C(OC(C)(C)C)C(=O)O)c(C)nc2c1 (stereo not shown) [JDH-2110] | 40 ± 10 | 465 | 9300 ± 500 | 30 ± 10 | 20 ± 10 | > 100000 | higher HTRF than NGJ9002 | about 30 fold | 7 | reduction of CA signal in high-density fractions |

From article PMC7949159, “Optimized binding of substituted quinoline ALLINIs within the HIV-1 integrase oligomer” (The Journal of Biological Chemistry, 2021)
